Consider 4 compounds from ChEMBL document CHEMBL5500391, “Systematic Structural Modification of Squaraine Dye for Near-Infrared Window One and Two Multiplexed In Vivo Imaging and Photothermal Therapy” (J Med Chem, 2024).

Structures are written as SMILES. Calls of active or inactive are those of the source. No cut-off for these calls is given here.

Data set [1] in a line: Drug uptake in mouse Lymph node at 769/48nm long pass by fluorescence imaging based analysis. The note with it: in vivo. It is filed as ADME, tissue-based.
Data set [2] concerns 4T1. The data set can be described thus: Antitumor activity against mouse 4T1 cells xenografted in BALB/c mouse model assessed as increase in tumor temperature at 6.84 ug, IG pretreated with compound for 2 hrs followed by laser irradiation at 808nm 1.0 W/cm2 for 5 mins (reference value: 34 degreeC). It is filed as functional. The note with it: dose 6.84 µg, time 125 min, 2.083 h.

In data set [3] the test system is 4T1. The data set can be described thus: Antitumor activity against mouse 4T1 cells xenografted in BALB/c mouse model assessed as suppression of tumor at 6.84 ug, IG pretreated with compound for 2 hrs followed by laser irradiation at 808nm 1.0 W/cm2 for 5 mins and measured every two days for 14 days by vernier caliper analysis. It is filed as functional. The note with it: dose 6.84 µg, time 14.0 day.

The nature of data set [4]: Toxicity in BALB/c mouse assessed as effect on body weight at 6.84 ug, IG measured every two days for 14 days. The note with it: in vivo, po, 336 h, dose 6.84 µg, time 14 day.
A short description of data set [5]: Toxicity in BALB/c mouse assessed as effect on lung measured after 24 hrs by real-time NIR-II fluorescence imaging analysis. The settings on record: in vivo. It counts as tissue-based.
Data set [6] in a line: Toxicity in BALB/c mouse assessed as effect on spleen at 6.84 ug, IG pretreated with compound for 2 hrs followed by laser irradiation at 808nm 1.0 W/cm2 for 5 mins and measured after 14 days by H and E staining based analysis. The note with it: in vivo, po, 336 h, dose 6.84 µg, time 14 day. It counts as tissue-based.
The nature of data set [7]: Toxicity in BALB/c mouse assessed as effect on tumor at 6.84 ug, IG measured after 14 days by H and E staining based analysis. The note with it: in vivo, po, 336 h, dose 6.84 µg, time 14 day.
Data set [8] is described as follows: Toxicity in BALB/c mouse assessed as effect on body weight at 6.84 ug, IG pretreated with compound for 2 hrs followed by laser irradiation at 808nm 1.0 W/cm2 for 5 mins and measured every two days for 14 days. The settings on record: in vivo, po, 336 h, dose 6.84 µg, time 14 day.
The test system of data set [9] is 4T1. As to the kind of experiment: Cytotoxicity in mouse 4T1 cells assessed as increase in red fluorescence at 100 uM incubated for 12 hrs by Calcein-AM and PI staining based fluorescence microscopy analysis. It counts as functional, cell-based.
The test system of data set [10] is 4T1. As to the kind of experiment: Antitumor activity against mouse 4T1 cells xenografted in BALB/c mouse model assessed as induction of apoptosis at 6.84 ug, IG pretreated with compound for 2 hrs followed by laser irradiation at 808nm 1.0 W/cm2 for 5 mins and measured every two days for 14 days by TUNEL assay. It counts as functional. The note with it: dose 6.84 µg, time 14.0 day.

Data set [11] in a line: Toxicity in BALB/c mouse assessed as effect on kidney at 6.84 ug, IG pretreated with compound for 2 hrs followed by laser irradiation at 808nm 1.0 W/cm2 for 5 mins and measured after 14 days by H and E staining based analysis. It counts as tissue-based. The note with it: in vivo, po, 336 h, dose 6.84 µg, time 14 day.
For data set [12], the system named is 4T1. The data set can be described thus: Cytotoxicity in mouse 4T1 cells assessed as decrease in cell survival at 75 uM incubated for 24 hrs under laser irradiation by CCK-8 method. It counts as functional, cell-based. In general terms: Tetrazolium assays rely on reduction of a dye to a coloured formazan, in cell work by metabolically active cells.
Data set [13] deals with 4T1. As to the kind of experiment: Cytotoxicity in mouse 4T1 cells assessed as increase in red fluorescence at 100 uM incubated for 12 hrs followed by 808nm laser irradiation for 5 mins and measured after 12 hrs by Calcein-AM and PI staining based fluorescence microscopy analysis. The settings on record: time 1445.0 min. It is filed as functional, cell-based.
Data set [14] has as its system 4T1. As to the kind of experiment: Antitumor activity against mouse 4T1 cells xenografted in BALB/c mouse model assessed as induction of apoptosis at 6.84 ug, IG measured every two days for 14 days by TUNEL assay. The note with it: dose 6.84 µg, time 14.0 day. It counts as functional.
Data set [15] can be described thus: Toxicity in BALB/c mouse assessed as ALT level in serum measured after 7 to 14 days by biochemical analysis. The note with it: time 7-14 day.
A short description of data set [16]: Drug metabolism in Balb/c mouse liver administered as iv dose by NIR-II fluorescence imaging analysis. It is filed as ADME, organism-based. The settings on record: in vivo.
Data set [17] is described as follows: Toxicity in BALB/c mouse assessed as effect on lung at 6.84 ug, IG pretreated with compound for 2 hrs followed by laser irradiation at 808nm 1.0 W/cm2 for 5 mins and measured after 14 days by H and E staining based analysis. It is filed as tissue-based. The note with it: in vivo, po, 336 h, dose 6.84 µg, time 14 day.
The nature of data set [18]: Toxicity in BALB/c mouse assessed as effect on kidney at 6.84 ug, IG measured after 14 days by H and E staining based analysis. It is filed as tissue-based. The settings on record: in vivo, po, 336 h, dose 6.84 µg, time 14 day.
A short description of data set [19]: Toxicity in BALB/c mouse assessed as effect on lung at 6.84 ug, IG measured after 14 days by H and E staining based analysis. It is filed as tissue-based. The settings on record: in vivo, po, 336 h, dose 6.84 µg, time 14 day.
The nature of data set [20]: Toxicity in BALB/c mouse assessed as effect on heart at 6.84 ug, IG measured after 14 days by H and E staining based analysis. It counts as tissue-based. The note with it: in vivo, po, 336 h, dose 6.84 µg, time 14 day.
Another data set concerns NIH3T3. The data set can be described thus: Cytotoxicity in mouse 3T3 cells at upto 100 uM incubated for 24 hrs by CCK-8 method. It is filed as toxicity, cell-based. The note with it: nih3t3, 24 h.
Data set [21] in a line: Toxicity in BALB/c mouse assessed as creatinine level in serum measured after 7 to 14 days by biochemical analysis. The note with it: time 7-14 day.
A short description of data set [22]: Toxicity in BALB/c mouse assessed as AST level in serum measured after 7 to 14 days by biochemical analysis. The settings on record: time 7-14 day.
Data set [23] in a line: Drug uptake in mouse 4T1 cells assessed as increase in fluorescence measured upto 12 hrs by NIR-II fluorescence microscopic analysis. It is filed as ADME, cell-based. The note with it: 4t1, 12 h.
Data set [24] in a line: Toxicity in BALB/c mouse assessed as ALB level in serum measured after 7 to 14 days by biochemical analysis. The settings on record: time 7-14 day.
The nature of data set [25]: Toxicity in BALB/c mouse assessed as effect on heart measured after 24 hrs by real-time NIR-II fluorescence imaging analysis. It is filed as tissue-based. The settings on record: in vivo.
Data set [26] in a line: Toxicity in BALB/c mouse assessed as UREA level in serum measured after 7 to 14 days by biochemical analysis. The settings on record: time 7-14 day.
Data set [27] is described as follows: Toxicity in BALB/c mouse assessed as effect on liver measured after 24 hrs by real-time NIR-II fluorescence imaging analysis. It is filed as tissue-based. The settings on record: in vivo.
Data set [28] can be described thus: Toxicity in BALB/c mouse assessed as effect on tumor at 6.84 ug, IG pretreated with compound for 2 hrs followed by laser irradiation at 808nm 1.0 W/cm2 for 5 mins and measured after 14 days by H and E staining based analysis. The settings on record: in vivo, po, 336 h, dose 6.84 µg, time 14 day.
Data set [29] is described as follows: Toxicity in BALB/c mouse assessed as effect on heart at 6.84 ug, IG pretreated with compound for 2 hrs followed by laser irradiation at 808nm 1.0 W/cm2 for 5 mins and measured after 14 days by H and E staining based analysis. It counts as tissue-based. The note with it: in vivo, po, 336 h, dose 6.84 µg, time 14 day.
The nature of data set [30]: Drug excretion in Balb/c mouse liver administered as iv dose measured after 12 hrs by NIR-II fluorescence imaging analysis. The settings on record: in vivo. It counts as ADME, organism-based.
The test system of data set [31] is 4T1. The data set can be described thus: Induction of intracellular ROS generation in mouse 4T1 cells preincubated with compound followed by laser irradiation at 808nm 1.0 W/cm2 by DCFDA staining based analysis. It is filed as functional, cell-based.
Data set [32] in a line: Toxicity in BALB/c mouse assessed as effect on liver at 6.84 ug, IG pretreated with compound for 2 hrs followed by laser irradiation at 808nm 1.0 W/cm2 for 5 mins and measured after 14 days by H and E staining based analysis. The settings on record: in vivo, po, 336 h, dose 6.84 µg, time 14 day. It is filed as tissue-based.
A short description of data set [33]: Toxicity in BALB/c mouse assessed as effect on kidney measured after 24 hrs by real-time NIR-II fluorescence imaging analysis. It counts as tissue-based. The settings on record: in vivo.
A short description of data set [34]: Toxicity in BALB/c mouse assessed as effect on spleen measured after 24 hrs by real-time NIR-II fluorescence imaging analysis. It is filed as tissue-based. The settings on record: in vivo.
Data set [35] is described as follows: Toxicity in BALB/c mouse assessed as effect on spleen at 6.84 ug, IG measured after 14 days by H and E staining based analysis. It is filed as tissue-based. The note with it: in vivo, po, 336 h, dose 6.84 µg, time 14 day.
Data set [36] is described as follows: Toxicity in BALB/c mouse assessed as effect on liver at 6.84 ug, IG measured after 14 days by H and E staining based analysis. It counts as tissue-based. The settings on record: in vivo, po, 336 h, dose 6.84 µg, time 14 day.
The subject of data set [37] is 4T1. The data set can be described thus: Cytotoxicity in mouse 4T1 cells at upto 100 uM incubated for 24 hrs by CCK-8 method. It is filed as functional, cell-based.
The nature of data set [38]: Drug uptake in mouse Lymph node at 655/24nm band pass by fluorescence imaging based analysis. It counts as ADME, tissue-based. The settings on record: in vivo.
Data set [39] in a line: Drug uptake in mouse Lymph node at 1000 long pass by fluorescence imaging based analysis. The note with it: in vivo. It is filed as ADME, tissue-based.

Turning to `CCN1/C(=C/C2=C([O-])C(=C/C3=[N+](CC)c4ccc5ccccc5c4C3(C)C)/C2=O)C(C)(C)c2c1ccc1ccccc21`, in data set [1], the Drug uptake result is given as “Active”.

`O=C1C(/C=c2\c3cccc4cccc(c43)n2CCCCS(=O)(=O)O)=C([O-])C/1=C/C1=[N+](CCCCS(=O)(=O)O)c2cccc3cccc1c23`: in the data set on 4T1 [2], the T is 54 °C. In addition, the outcome with 4T1 [3], in the data set with 4T1 [10], with 4T1 [12], in the data set with 4T1 [13] and in the data set with 4T1 [14] was Active. Besides, the Activity result in data set [4], in data set [5], in [6], in [7], in data set [8] and in data set [11] was “Non-Toxic” each time. For the same compound, the Activity entry (in [15]; in data set [17]; in [18]; in data set [19]; in [20]; in the data set on NIH3T3) was “Non-Toxic” in each case. Further, the Activity result in data set [21], in [22], in [24], in data set [25], in data set [26] and in data set [27] was “Non-Toxic” in each case. The Activity entry in data set [28], in data set [29], in data set [32], in [33], in [34] and in [35] was “Non-Toxic” in each case. Besides, the Activity entry in data set [36] is “Non-Toxic”. The outcome in the data set with 4T1 [9], in the data set with 4T1 [31] and in the data set with 4T1 [37] was inactive. Further, in data set [16], the Drug metabolism entry is given as “Metabolite_Detected”. Besides, the Drug uptake entry in data set [23] was “Active”. In addition, the Drug excretion entry in data set [30] was “Active”.

For `CCN1/C(=C/C2=C([O-])C(=C/C3=[N+](CC)c4ccccc4C3(C)C)/C2=O)C(C)(C)c2ccccc21`, the Drug uptake entry in data set [38] is on record as “Active”.

`CCn1/c(=C/C2=C([O-])C(=C/C3=[N+](CC)c4cccc5cccc3c45)/C2=O)c2cccc3cccc1c32`: the Drug uptake result in [39] is listed as “Active”.
